Results published in patent US8592174B2, “Peptidase substrates” (bioMérieux, S.A., priority 2009, dated 2013).

Columns and labels:
Assay in all cases: Peptidase detection on Columbia medium (Example 2)
Assay type in all cases: cell-based
Settings in all cases: 24 h 37° C.
[1] = system: Escherichia coli NCTC 10 418; parameters: key to Growth: NG: No growth; 0.5: weak growth; 1: moderate growth; 2: good growth
Method: (§1) The 6 media were distributed into Petri dishes 90 mm in diameter, in a proportion of 20 ml per dish.
(§2) Seventeen strains of microorganisms stemming from collections and belonging to various species of bacteria and yeasts are inoculated in spots of approximately 10 000 colony-forming units.
(§3) The media are incubated for 24 hours at 37° C., and then the colonies formed are examined visually, with or without the addition of acid and under a UV lamp at 365 nm.

[2] = system: Serratia marcescens NCTC 10 211; parameters: key to Growth: NG: No growth; 0.5: weak growth; 1: moderate growth; 2: good growth
Method: as §1, §2, §3

[3] = system: Pseudomonas aeruginosa NCTC 10 662; parameters: key to Growth: NG: No growth; 0.5: weak growth; 1: moderate growth; 2: good growth; key to Color: —: no color
Method: as §1, §2, §3

[4] = system: Yersinia enterocolitica NCTC 11 176; parameters: key to Growth: NG: No growth; 0.5: weak growth; 1: moderate growth; 2: good growth; key to Color: —: no color
Method: as §1, §2, §3

[5] = system: Salmonella typhimurium NCTC 74; parameters: key to Growth: NG: No growth; 0.5: weak growth; 1: moderate growth; 2: good growth; key to Color: —: no color
Method: as §1, §2, §3

[6] = system: Enterobacter cloacae NCTC 11 936; parameters: key to Growth: NG: No growth; 0.5: weak growth; 1: moderate growth; 2: good growth
Method: as §1, §2, §3

[7] = system: Providencia rettgeri NCTC 7 475; parameters: key to Growth: NG: No growth; 0.5: weak growth; 1: moderate growth; 2: good growth; key to Color: —: no color
Method: as §1, §2, §3

[8] = system: Bacillus subtilis NCTC 9 372; parameters: key to Growth: NG: No growth; 0.5: weak growth; 1: moderate growth; 2: good growth; key to Fluo. / Color / Color post-acid.: —: no color
Method: as §1, §2, §3

[9] = system: Enterococcus faecalis NCTC 775; parameters: key to Growth: NG: No growth; 0.5: weak growth; 1: moderate growth; 2: good growth; key to Fluo. / Color / Color post-acid.: —: no color
Method: as §1, §2, §3

[10] = system: Enterococcus faecium NCTC 7 171; parameters: key to Growth: NG: No growth; 0.5: weak growth; 1: moderate growth; 2: good growth; key to Fluo. / Color / Color post-acid.: —: no color
Method: as §1, §2, §3

[11] = system: Staphylococcus epidermidis NCTC 11 047; parameters: key to Growth: NG: No growth; 0.5: weak growth; 1: moderate growth; 2: good growth; key to Fluo. / Color / Color post-acid.: —: no color
Method: as §1, §2, §3

[12] = system: Staphylococcus aureus NCTC 6 571; parameters: key to Growth: NG: No growth; 0.5: weak growth; 1: moderate growth; 2: good growth; key to Fluo. / Color / Color post-acid.: —: no color
Method: as §1, §2, §3

[13] = system: Staphylococcus aureus NCTC 11 939; parameters: key to Growth: NG: No growth; 0.5: weak growth; 1: moderate growth; 2: good growth; key to Fluo. / Color / Color post-acid.: —: no color
Method: as §1, §2, §3

[14] = system: Streptococcus pyogenes NCTC 8 306; parameters: key to Growth: NG: No growth; 0.5: weak growth; 1: moderate growth; 2: good growth; key to Fluo. / Color / Color post-acid.: —: no color
Method: as §1, §2, §3

[15] = system: Listeria monocytogenes NCTC 11 994; parameters: key to Growth: NG: No growth; 0.5: weak growth; 1: moderate growth; 2: good growth; key to Fluo. / Color / Color post-acid.: —: no color
Method: as §1, §2, §3

[16] = system: Candida albicans ATCC 90 028; parameters: key to Growth: NG: No growth; 0.5: weak growth; 1: moderate growth; 2: good growth; key to Fluo. / Color / Color post-acid.: —: no color
Method: as §1, §2, §3

[17] = system: Candida glabrata NCPF 3 943; parameters: key to Growth: NG: No growth; 0.5: weak growth; 1: moderate growth; 2: good growth; key to Fluo. / Color / Color post-acid.: —: no color
Method: as §1, §2, §3

C[n+]1ccc(C=Cc2ccc(NC(=O)[C@@H](N)CC(N)=O)cc2)c2ccccc21.O=C(O)C(F)(F)F.O=C([O-])C(F)(F)F [Asn-ASQM^+, L-asparaginyl-4-(4′-amidostyryl)-N-methylquinolinium-bis-TFA]
Color ([1]; 80 mg in 400 ml Columbia): Pale orange
Growth ([1]; 80 mg in 400 ml Columbia): 2
Color ([2]; 80 mg in 400 ml Columbia): Pale orange
Growth ([2]; 80 mg in 400 ml Columbia): 2
Color ([3]; 80 mg in 400 ml Columbia): Pale orange
Growth ([3]; 80 mg in 400 ml Columbia): 2
Color ([4]; 80 mg in 400 ml Columbia): —
Growth ([4]; 80 mg in 400 ml Columbia): 2
Color ([5]; 80 mg in 400 ml Columbia): —
Growth ([5]; 80 mg in 400 ml Columbia): 2
Color ([6]; 80 mg in 400 ml Columbia): Pale orange
Growth ([6]; 80 mg in 400 ml Columbia): 2
Color ([7]; 80 mg in 400 ml Columbia): —
Growth ([7]; 80 mg in 400 ml Columbia): 2
Color ([8]; 80 mg in 400 ml Columbia): Orange
Growth ([8]; 80 mg in 400 ml Columbia): 2
Color ([9]; 80 mg in 400 ml Columbia): —
Growth ([9]; 80 mg in 400 ml Columbia): 2
Color ([10]; 80 mg in 400 ml Columbia): —
Growth ([10]; 80 mg in 400 ml Columbia): 2
Color ([11]; 80 mg in 400 ml Columbia): —
Color ([12]; 80 mg in 400 ml Columbia): —
Growth ([12]; 80 mg in 400 ml Columbia): 0.5
Color ([13]; 80 mg in 400 ml Columbia): Orange
Growth ([13]; 80 mg in 400 ml Columbia): 2
Color ([14]; 80 mg in 400 ml Columbia): —
Color ([15]; 80 mg in 400 ml Columbia): —
Growth ([15]; 80 mg in 400 ml Columbia): 2
Color ([16]; 80 mg in 400 ml Columbia): —
Growth ([16]; 80 mg in 400 ml Columbia): 2
Color ([17]; 80 mg in 400 ml Columbia): —
Growth ([17]; 80 mg in 400 ml Columbia): 0.5

C[n+]1ccc(C=Cc2ccc(NC(=O)[C@@H](N)Cc3ccc(O)cc3)cc2)c2ccccc21.Cl.[Cl-] [Tyr-ASQM^+, L-tyrosyl-4-(4′-amidostyryl)-N-methylquinolinium dihydrochloride]
Color ([1]; 40 mg in 400 ml Columbia): Orange
Growth ([1]; 40 mg in 400 ml Columbia): 2
Color ([2]; 40 mg in 400 ml Columbia): Orange
Growth ([2]; 40 mg in 400 ml Columbia): 2
Color ([3]; 40 mg in 400 ml Columbia): —
Growth ([3]; 40 mg in 400 ml Columbia): 2
Growth ([4]; 40 mg in 400 ml Columbia): 2
Growth ([5]; 40 mg in 400 ml Columbia): 2
Color ([6]; 40 mg in 400 ml Columbia): Orange
Growth ([6]; 40 mg in 400 ml Columbia): 2
Growth ([7]; 40 mg in 400 ml Columbia): 2
Color ([8]; 40 mg in 400 ml Columbia): —
Growth ([8]; 40 mg in 400 ml Columbia): 1
Growth ([9]; 40 mg in 400 ml Columbia): 1
Color ([10]; 40 mg in 400 ml Columbia): —
Growth ([10]; 40 mg in 400 ml Columbia): 1
Color ([11]; 40 mg in 400 ml Columbia): —
Growth ([11]; 40 mg in 400 ml Columbia): 0.5
Color ([12]; 40 mg in 400 ml Columbia): —
Growth ([12]; 40 mg in 400 ml Columbia): NG
Color ([13]; 40 mg in 400 ml Columbia): —
Growth ([13]; 40 mg in 400 ml Columbia): NG
Color ([14]; 40 mg in 400 ml Columbia): —
Growth ([14]; 40 mg in 400 ml Columbia): NG
Color ([15]; 40 mg in 400 ml Columbia): —
Growth ([15]; 40 mg in 400 ml Columbia): 1
Color ([16]; 40 mg in 400 ml Columbia): —
Growth ([16]; 40 mg in 400 ml Columbia): 0.5
Color ([17]; 40 mg in 400 ml Columbia): —
Growth ([17]; 40 mg in 400 ml Columbia): NG

C[n+]1ccc(C=Cc2ccc(NC(=O)CC[C@H](N)C(=O)O)cc2)c2ccccc21.Cl.[Cl-] [λ-Glu-ASQM^+, L-gamma-glutamyl-4-(4′-amidostyryl)-N-methylquinolinium (dichloride)]
Color ([1]; 40 mg in 400 ml Columbia): Orange
Growth ([1]; 40 mg in 400 ml Columbia): 2
Color ([2]; 40 mg in 400 ml Columbia): Orange
Growth ([2]; 40 mg in 400 ml Columbia): 2
Color ([3]; 40 mg in 400 ml Columbia): Orange
Growth ([3]; 40 mg in 400 ml Columbia): 2
Color ([4]; 40 mg in 400 ml Columbia): —
Growth ([4]; 40 mg in 400 ml Columbia): 2
Color ([5]; 40 mg in 400 ml Columbia): Orange
Growth ([5]; 40 mg in 400 ml Columbia): 2
Color ([6]; 40 mg in 400 ml Columbia): Orange
Growth ([6]; 40 mg in 400 ml Columbia): 2
Color ([7]; 40 mg in 400 ml Columbia): Orange
Growth ([7]; 40 mg in 400 ml Columbia): 2
Color ([8]; 40 mg in 400 ml Columbia): —
Growth ([8]; 40 mg in 400 ml Columbia): 1
Color ([9]; 40 mg in 400 ml Columbia): —
Growth ([9]; 40 mg in 400 ml Columbia): 1
Color ([10]; 40 mg in 400 ml Columbia): —
Growth ([10]; 40 mg in 400 ml Columbia): 1
Color ([11]; 40 mg in 400 ml Columbia): —
Growth ([11]; 40 mg in 400 ml Columbia): 1
Color ([12]; 40 mg in 400 ml Columbia): —
Growth ([12]; 40 mg in 400 ml Columbia): 1
Color ([13]; 40 mg in 400 ml Columbia): —
Growth ([13]; 40 mg in 400 ml Columbia): 1
Color ([14]; 40 mg in 400 ml Columbia): —
Growth ([14]; 40 mg in 400 ml Columbia): 1
Color ([15]; 40 mg in 400 ml Columbia): —
Growth ([15]; 40 mg in 400 ml Columbia): 1
Color ([16]; 40 mg in 400 ml Columbia): —
Growth ([16]; 40 mg in 400 ml Columbia): 1
Color ([17]; 40 mg in 400 ml Columbia): —
Growth ([17]; 40 mg in 400 ml Columbia): 1
